From patent publication US20140323562A1, “THIOSULFINATE ANTIOXIDANTS AND METHODS OF USE THEREOF” (Universition of Ottawa, priority 2011, published 2014)
Where two headings read alike, the source gives them in different places. Marks after values point to notes of the source that are not given here.

Columns and labels:
[1] = chlorobenzene, 37° C., same conditions; cited from earlier work
[2] = Decomposition / Cope elimination half-life (HPLC); assay type: physicochemical
Source text: The lack of radical-trapping activity of allicin and petivericin obvious from FIGS. 1A and 1B could be due to their partitioning to the aqueous phase, where Cope elimination to produce the reactive sulfenic acids 3 and 4, respectively, is slowed dramatically by H-bonding. (V. Vaidya, K. U. Ingold, D. A. Pratt, Angew. Chem. Int. Ed. 2009, 48, 157-160; P. T. Lynett, K. Butts, V. Vaidya, G. E. Garrett, D. A. Pratt, Org. Biomol. Chem. 2011, 9, 3320-3330; E. Block, Angew. Chem. Int. Ed. Engl. 1992, 31, 1135-1178; and F. Freeman, Y. Kodera, J. Agric. Food Chem. 1995, 43, 2332-2338] However, the half-life for decomposition of allicin in the liposome solutions (determined by HPLC) was extended by only 50% compared to that determined in non-H-bonding organic solvents (˜60 minutes). (V. Vaidya, K. U. Ingold, D. A. Pratt, Angew. Chem. Int. Ed. 2009, 48, 157-160; P. T. Lynett, K. Butts, V. Vaidya, G. E. Garrett, D. A. Pratt, Org. Biomol. Chem. 2011, 9, 3320-3330). This is consistent with a previous report which provides a partition coefficient for allicin in phosphatidylcholine:water of Kp=11 (T. Miron, A. Rabinkov, D. Mirelman, M. Wilchek, L. Weiner, Biochim. Biophys. Acta 2000, 1463, 20-30). The Cope elimination of 3 from petivericin was roughly identical—with a half-life of ˜90 minutes (see Supp. Info.). […]

[3] = Oxidation of egg phosphatidylcholine liposomes containing the fluorescent probe H2B-PMHC; conditions: for effect on oxidation of liposome-embedded H2B-PMHC with one equivalent of NAC: MeOAMVN- or ABAP-mediated, 4.5-15 μM, equivalent amount of NAC, PBS pH 7.4; for inhibition of oxidation of liposome-embedded H2B-PMHC: MeOAMVN-mediated (0.2 mM), compound 1.5-15 μM; for inhibition of oxidation of liposome-embedded H2B-PMHC / radical trapping at the lipid/water interface: no thiol; for efficacy relative to α-TOH in a lipid bilayer: inferred from no effect at 15 μM (100-fold over H2BPMHC); for radical trapping at the lipid/water interface: water-soluble ABAP-mediated oxidation; for effect of increasing equivalents of NAC on inhibited period: 4.5 μM compound, MeOAMVN and ABAP, NAC 1-5 equiv. (9) or 0-4 equiv. (5)
Procedure: FIG. 1 depicts representative fluorescence intensity-time profiles from MeOAMVN-mediated (0.2 mM) oxidations of egg phosphatidylcholine liposomes (1 mM) containing 0.15 μM H2BPMHC and increasing concentrations (1.5, 3.0, 4.5, 6.0, 7.5 and 15 μM) of 1 (A), 2 (B), 5 (C) and 8 (D—15 μM profile not shown); fluorescence (λex=485 nm; λem=520 nm) was recorded every 50 s;
FIG. 2 depicts representative fluorescence intensity-time profiles from MeOAMVN-mediated (0.2 mM, left) and ABAP-mediated (2.7 mM, right) oxidations of egg phosphatidylcholine liposomes (1 mM) containing 0.15 μM H2B-PMHC and either 2 (A, B) or 9 (C, D) at 4.5 μM (black), 7.5 μM (grey) or 15 μM (light grey) in PBS buffer of pH 7.4 containing an equivalent amount of NAC; panels E and F show the effect of NAC only (4.5, 7.5 and 15 μM); fluorescence (λex=485 nm; λem=520 nm) was recorded every 50 s; and
FIG. 3 depicts representative fluorescence-time profiles from MeOAMVN-mediated (0.2 mM, left) and ABAP-mediated (2.7 mM, right) oxidations of egg phosphatidylcholine liposomes (1 mM) containing 0.15 μM H2B-PMHC and either 4.5 μM 9 (A, B) with 1, 2, 3 or 5 equiv. of NAC or 4.5 μM 5 (C, D) with 0, 1, 2 or 4 equiv. of NAC; fluorescence (λex=485 nm; λem=520 nm) was recorded every 50 s.
To shed some light on this issue, the radical-trapping abilities of 1, 2 and 5 have been studied in unilamellar phosphatidylcholine liposomes—convenient models for the lipid bilayers that make up biological membranes. The relative reactivities of the compounds were determined using H2B-PMHC (6), an analog of α-tocopherol (7 or α-TOH, the most biologically-active form of Vitamin E and Nature's premier lipophilic radical-trapping antioxidant) (G. W. Burton, K. U. Ingold, Acc. Chem. Res. 1986, 19, 194-201), which undergoes a significant fluorescence enhancement upon oxidation by two equivalents of peroxyl radical. In the presence of a good radical-trapping antioxidant, the fluorescence onset is suppressed since the radicals are trapped by the compound under investigation in lieu of reacting with H2B-PMHC.
Initial experiments focused on the ability of either 1 or 2 to inhibit the oxidation of liposome-embedded H2B-PMHC by either lipophilic or hydrophilic peroxyl radicals derived from the azo initiators MeOAMVN (N. Noguchi, H. Yamashita, N. Gotoh, Y. Yamamoto, R. Numano, E. Niki, Free Rad. Biol. Med. 1998, 24, 259-268) and ABAP, (L. R. C. Barclay, S. J. Locke, J. M. MacNeil, J. VanKessel, G. W. Burton, K. U. Ingold, J. Am. Chem. Soc. 1984, 106, 2479-2481) respectively. Representative results are shown for MeOAMVN-mediated oxidations in FIG. 1. […] Since the reactivity of H2B-PMHC is essentially the same as that of α-TOH, the efficacy of 1 and 2 must therefore be less than 1/100 that of α-TOH in a lipid bilayer.
The time required to reach maximum fluorescence in the first phase of the plots in FIG. 1 (ca. 400 counts), which we will hereafter refer to as the ‘inhibited period’, reflects the stoichiometry of the reaction of the antioxidant and the peroxyl radicals. […] Chem. Int. Ed. 2009, 48, 157-160; and R. Amorati, P. T. Lynett, L. Valgimigli, D. A. Pratt, Chem. Eur. J. 2012, 18, 6370-6379)

[4] = Peroxyl radical clock (methyl linoleate oxidation, Z,E:E,E product ratio by HPLC); conditions: for kinh/kinh (C6BPT): chlorobenzene at 37° C., peroxyl radical clock
Procedure: The kinetics of reaction of p-n-C6H13-BPT with peroxyls was studied using a method based on the peroxyl radical clocks described in Roschek, B.; Tallman, K. A.; Rector, C. L.; Gillmore, J. G.; Pratt, D. A.; Punta, C.; Porter, N. A. J. Org. Chem. 2006, 71, 3527-3532.
Stock solutions of methyl linoleate (“MeLin”) (1.0 M), methoxy 2,2′-Azobis(4-methoxy-2,4-dimethyl valeronitrile) (“MeOAMVN”) (0.1 M), and the thiosulfinates, BPT and p-n-C6H13-BPT 5, were prepared in chlorobenzene. Samples were assembled in 1 mL HPLC autosampler vials with a total reaction volume of 100 μL. Solutions were prepared in the following order to avoid premature oxidation:thiosulfinate (1 mM-7 mM), MeLin (0.10 M) and then MeOAMVN (0.01 M), and diluted to 100 μL with chlorobenzene. The sealed samples were then heated to 37° C. for 2 h. After 2 h, the oxidation was stopped by the addition of butylated hydroxytoluene (“BHT”) (50 μL of 1.0 M solution in hexanes), followed by reduction of the hydroperoxides to alcohols by triphenylphosphine (50 μL of 1 M solution in chlorobenzene). The samples were then diluted to 1 mL with HPLC grade hexanes and analyzed by HPLC (0.5% i-PrOH in hexanes, 1 mL min-1, 40 min, Sun-Fire Silica, 5 mm 4.6×250 mm column, UV detection at 234 nm). The ratio of products (Z,E:E,E) was plotted versus thiosulfinate concentration to derive kH, (Roschek, B.; Tallman, K. A.; Rector, C. L.; Gillmore, J. G.; Pratt, D. A.; Punta, C.; Porter, N. A. J. Org. Chem. 2006, 71, 3527-3532).
The peroxyl radical clock method was used to measure the rate constants for the reaction of a furan-containing thiosulfinate compound (S-(furan-2-ylmethyl) furan-2-ylmethanesulfinothioate) with peroxyl radicals (kinh). The method relies on the competition between the β-fragmentation of a peroxyl radical and its trapping by a H-atom donor. When methyl linoleate is used as a precursor, the reduction of the two initially formed (Z,E)-dienylperoxyl radicals by the antioxidant (A-H in the scheme below) competes with their isomerization to the more thermodynamically stable (E,E)-dienylperoxyl radicals. […]

[5] = going from chlorobenzene to acetonitrile; cited from earlier work
[6] = known from literature under these conditions; cited from earlier work
[7] = radicals generated using MeOAMVN

[O-][S+](Cc1ccccc1)SCc1ccccc1 (stereo not shown) [BPT, S-Benzyl phenylmethane thiosulfinate]
kH [1]: 200000 M⁻¹ s⁻¹
half-life ([2]; liposome solutions): ~1.5 h
effect on oxidation of liposome-embedded H2B-PMHC with one equivalent of NAC [3]: little effect
inhibition of oxidation of liposome-embedded H2B-PMHC [3]: neither 1 nor 2 were able to slow the oxidation
efficacy relative to α-TOH in a lipid bilayer [3]: less than 1/100
radical trapping at the lipid/water interface [3]: cannot

CC(=O)N[C@@H](CS)C(=O)O [NAC, N-acetylcysteine]
effect of NAC alone on oxidation ([3]; ABAP-mediated, 4.5, 7.5 and 15 μM): only a modest retarding effect
effect of NAC alone on oxidation ([3]; MeOAMVN-mediated, 4.5, 7.5 and 15 μM): does little

[O-][S+](Cc1ccco1)SCc1ccco1 (stereo not drawn) [S-(furan-2-ylmethyl) furan-2-ylmethanesulfinothioate]
kinh/kinh (C6BPT) [4]: 1.1

C=CCS[S+]([O-])CC=C (stereo not shown) [compound 1, allicin]
extension of half-life for decomposition in liposome solutions compared to non-H-bonding organic solvents ([2]; HPLC): 50%
effect on oxidation of liposome-embedded H2B-PMHC with one equivalent of NAC [3]: little effect
inhibition of oxidation of liposome-embedded H2B-PMHC [3]: neither 1 nor 2 were able to slow the oxidation
efficacy relative to α-TOH in a lipid bilayer [3]: less than 1/100
radical trapping at the lipid/water interface [3]: cannot

OSC12c3ccccc3C(c3ccccc31)c1ccccc12 [compound 5, 9-triptycenesulfenic acid]
effect of increasing equivalents of NAC on inhibited period [3]: the inhibited period was extended with increasing concentration of NAC
inhibition of oxidation of liposome-embedded H2B-PMHC [3]: excellent concentration-dependent radical-trapping activity
rate of H2B-PMHC oxidation (fluorescence increase) ([3]; MeOAMVN-mediated, in presence of compound): essentially nil
number of peroxyl radicals trapped (stoichiometry) ([3]; implied from slope relative to 8): one
slope of inhibited period versus concentration ([3]; radicals generated using AAPH): 10 min/µM
slope of inhibited period versus concentration [3, 7]: 14 min/µM
radical trapping at the lipid/water interface [3]: can trap radicals at the lipid/water interface

Cc1c(C)c2c(c(C)c1O)CC[C@@](C)(CCC[C@H](C)CCC[C@H](C)CCCC(C)C)O2 [compound 7, α-tocopherol]
slowing of rate of reaction with peroxyl radicals by H-bond accepting solvent [5]: 20 fold

Cc1c(C)c2c(c(C)c1O)CCC(C)(C)O2 [compound 8, PMHC]
slope of inhibited period versus concentration ([3]; radicals generated using AAPH): 21 min/µM
slope of inhibited period versus concentration [3, 7]: 31 min/µM
radical trapping at the lipid/water interface [3]: can trap radicals at the lipid/water interface
number of peroxyl radicals trapped (stoichiometry) [6]: two

CCCCCCc1ccc(CS[S+]([O-])Cc2ccc(CCCCCC)cc2)cc1 (stereo not shown) [compound 9]
effect of increasing equivalents of NAC on inhibited period [3]: proportionately increased the inhibited period
effect on oxidation of liposome-embedded H2B-PMHC with one equivalent of NAC [3]: pronounced inhibited period
inhibition of oxidation of liposome-embedded H2B-PMHC [3]: essentially indistinguishable from those supplemented with allicin and petivericin

CCCCCCc1ccc(CS[S+]([O-])Cc2ccc(CCCCCC)cc2)cc1 (stereo not shown) [p-n-C6H13-BPT 5, p-n-C6H13-Benzyl phenylmethane thiosulfinate]
kinh/kinh (C6BPT) [4]: 1.0^a
rate constant relative to that of BPT ([4]; chlorobenzene, 37° C., MeLin 0.10 M, MeOAMVN 0.01 M): about 1.6 fold
